pIC50: −log10 of the molar value. Like-named read-outs stand apart in the source and are kept apart here.
Assays:
[1] = test system: AFAT (acyl-Coenzyme A: fatty alcohol acyltransferase); experiment: Inhibition of wax ester (WE) synthesis in mouse preputial gland microsomes; conditions: for pIC50: read-out: Inhibition of Wax Ester (WE) Synthesis IC50, mouse preputial microsome preparation, [14C]hexadecanol label, oleoyl coenzyme A
Protocol: (§1) a) The rats or mice are anesthetized with ether, and the PGs are removed and placed in a beaker containing wash buffer (ice cold).
(§2) b) As soon as possible, the PGs are homogenized in a Potter-Elvehjem homogenizer with 15 mL of homogenizing buffer. The homogenizer is kept in a small ice bath. Work the plunger until it reaches the bottom of the tube 10 times.
(§3) k) Add 1 mL of 0.2 M KPO4 buffer pH 7.4 to half of the bottles in an ice bath. Scrape the whole pellet loose with a teflon rod and transfer to a 15 mL homogenizer. Wash bottle with 1 mL of buffer and transfer to one of the bottles that has a pellet but no buffer. Homogenize gently by hand. Aliquot into Cryovials (Nalgene™) and store in liquid nitrogen. The microsomes remain active for at least 2 years.
(§4) m) Determine the protein concentration of the homogenate by the Lowry method. […] Desired protein concentration is 20 mg/mL rat or mouse PG microsomes.
(§5) C. [4-^14C]Cholesteryl or [(1-^14C]Hexadecanol. Evaporate the toluene from the vial. Re-suspend radiolabel in 0.1 mL 2-propanol.
(§6) D. Oleoyl Coenzyme A (1 mM in sucrose buffer). Dissolve 10.3 mg oleoyl coenzyme A (Sigma 0-7002) in 10 mL sucrose buffer. Note: Store at −10° C. Dilute 5-fold to 200 μM with sucrose buffer just prior to assay.
(§7) E. [^14C]Cholesteryl—Labeled Microsomes or [^14C]Hexadecanol—Labeled Microsomes. Dilute a vial of stock microsomes to 4 mg protein per milliliter with sucrose buffer. For every 1 mL of diluted microsome solution, use glass syringe (Hamilton, [sequence], 1702) and transfer 2.5 μL of radiolabel to diluted microsomes by submerging syringe needle in the microsome solution and swirling while ejecting syringe contents. Flush syringe once with microsome solution. Determine dpm in small aliquot of solution by liquid scintillation counting (LSC). Need approximately 4×10^6 dpm/mL in the microsome solution.
(§8) G. Test Compound Solutions. Test compounds are weighed to make either 1 mM or 4 mM stock solutions in dimethylsulfoxide (DMSO). These solutions are used to prepare DMSO solutions containing 40 times the concentration of compound to be tested. These solutions may be prepared 24 hours prior to the assay and stored at room temperature.
(§9) a) Duplicate samples are prepared by adding 5 μL of test compound solution to each of two assay tubes. Controls and blanks receive 5 μL of DMSO. […]
(§10) h) Transfer 40 μL of the acidified solution to the pre-absorbent area of Whatman LK6D silica gel TLC plates, which are then dried on a hot plate for 5 minutes and developed in trimethylpentane/diethyl ether/acetic acid (75:25:2). The bands containing radiolabel are detected and quantitated by phosphorimaging with a Molecular Dynamics phosphorimager.
(§11) TLC will resolve free alcohol from its ester. The relative amount of radioactivity in each of those bands is determined by phosphorimaging. […]

[2] = test system: ACAT (acyl-Coenzyme A: cholesteryl acyltransferase)
Protocol: as §5
D. Oleoyl Coenzyme A (1 mM in sucrose buffer). […] Note: Store at −10° C. Dilute 5-fold to 200 μM with sucrose buffer just prior to assay.
E. [^14C]Cholesteryl—Labeled Microsomes or [^14C]Hexadecanol—Labeled Microsomes. Dilute a vial of stock microsomes to 4 mg protein per milliliter with sucrose buffer. […] Flush syringe once with microsome solution. Determine dpm in small aliquot of solution by liquid scintillation counting (LSC). Need approximately 4×10^6 dpm/mL in the microsome solution.
G. Test Compound Solutions. Test compounds are weighed to make either 1 mM or 4 mM stock solutions in dimethylsulfoxide (DMSO). These solutions are used to prepare DMSO solutions containing 40 times the concentration of compound to be tested. […]
as §10, §11

[3] = test system: AFAT (acyl-Coenzyme A: fatty alcohol acyltransferase)
Protocol: as §1, §2, §3, §4, §5, §6, §7, §8, §9, §10, §11

Row | Inhibition of WE synthesis in mouse preputial gland microsomes (in words) ([1]; inhibition curves of FIG. 1, 0.01 μM to 100 μM) | pIC50 [1] | Inhibition of liver ACAT (in words) ([2]; inhibition curves of FIG. 1, printed as rat liver ACAT) | pIC50 ([2]; read-out: Inhibition of Cholesteryl Ester (CE) Synthesis IC50, mouse liver microsome preparation, [14C]cholesteryl label, oleoyl coenzyme A) | Inhibition of WE synthesis in mouse preputial gland microsomes (in words) [3] | Structure (SMILES)
1 | no inhibition of WE synthesis | < 4.00 |  |  |  | CCCCCCCCCCC(C)(C)C(=O)Nc1c(OC)cc(OC)cc1OC [Compound 2, 2,2-dimethyl-N-(2,4,6-trimethoxyphenyl)-dodecanamide]
2 |  | 4.86 | potent inhibitors of rat liver ACAT | 7.05 | unexpectedly inhibits WE synthesis | CC(C)c1cc(C(C)C)c(CC(=O)NS(=O)(=O)Oc2c(C(C)C)cccc2C(C)C)c(C(C)C)c1 [Compound 1, [(2,4,6-triisopropyl-phenyl)-acetyl]-sulfamic acid 2,6-diisopropyl-phenyl ester]

Reference: patent publication US6730703B2, “Dual inhibitors of cholesteryl ester and wax ester synthesis for sebaceous gland disorders” (Warner-Lambert Company, priority 2000, dated 2004)
